Reference: patent US7084137B2, “Thiazines and thiazoles as agents for protecting materials” (Bayer Aktiengesellschaft, priority 2001, dated 2006)
Values after ≈ are worked out from the molar mass of the structure shown.

Assays:
Penicillium brevicaule = assay: Minimum inhibitory concentration (MIC) against fungi on malt extract agar; format: cell-based; settings: 2 weeks of incubation at 28° C., 60 to 70% relative atmospheric humidity; for MIC: Penicillium, 336 h
Method: (§1) The active compounds according to the invention are in each case added, in concentrations of from 0.1 mg/l to 5000 mg/l, to an agar which is prepared using malt extract. The MIC is determined after 2 weeks of incubation at 28° C. and 60 to 70% relative atmospheric humidity.

Chaetomium globosum = assay: as above; format: cell-based; settings: 2 weeks of incubation at 28° C., 60 to 70% relative atmospheric humidity; for MIC: Chaetomium globosum, 336 h
Method: as §1

Aspergillus niger = assay: as above; format: cell-based; settings: 2 weeks of incubation at 28° C., 60 to 70% relative atmospheric humidity; for MIC: Aspergillus niger, 336 h
Method: as §1

Bacillus subtilis = assay: Minimum inhibitory concentration (MIC) against bacteria on nutrient agar; format: cell-based; settings: 3 days of incubation at 28° C., 60 to 70% relative atmospheric humidity; for MIC: Bacillus subtilis, 72 h
Method: The active compounds according to the invention are in each case added, in concentrations of from 0.1 mg/ml to 5000 mg/ml, to a chemically defined nutrient agar. The MIC is determined after 3 days of incubation at 28° C. and 60 to 70% relative atmospheric humidity.

[1] = system: mould fungi (Alternaria tenius, Aspergillus flavus, Aspergillus niger, Aspergillus ustus, Cindosporum herbarum, Paecilomyces variotii, Penicillium citrium …); assay: Test of dispersion coatings for resistance to mould; settings: coatings according to recipe A containing 1.5% (based on solids) of compound; even after leaching out and wind tunnel exposure; 2–3 weeks storage
Method: To test dispersion coatings for resistance to mould, the following procedure is adopted:
The paint to be tested is applied to both sides of a suitable base. To obtain results which are close to practice, some of the test specimens are leached out with running water (24 h, 20° C.) before the test for mould resistance; others are treated with a current of warm fresh air (7 days, 40° C.).
The samples prepared in this way are then placed on an agar nutrient medium, and both samples and nutrient medium are contaminated with fungal spores. After 2–3 weeks storage (29±1° C., 80–90% rel. atmospheric humidity), the samples are compared.
The coating is considered to be permanently mould-resistant if the sample remains free from fungus or at most a slightly border infestation can be detected.
For the contamination, fungal spores of the following mould fungi are used, which are known as paint destroyers or are frequently encountered on coatings: • Alternaria tenius • Aspergillus flavus • Aspergillus niger • Aspergillus ustus • Cindosporum herbarum • Paecilomyces variotii • Penicillium citrium • Aureobasidium pullulans • Stachybotrys chartarum
Recipe A: Exterior dispersion paint based on Acroal 290 D (styrene acrylate)

SMILES | Minimum inhibitory concentration, Penicillium brevicaule (Penicillium brevicaule) | Minimum inhibitory concentration, Chaetomium globosum (Chaetomium globosum) | MIC (Penicillium brevicaule) | MIC (Chaetomium globosum) | MIC (Aspergillus niger) | other results
Oc1cccc(SC2=NCCCS2)c1 [Example 41] | 100 ppm | 200 ppm | – | – | – | –
COC(=O)C1CSC(Sc2cccc(Cl)c2)=N1 (stereo not drawn) [Example 18] | – | 200 ppm | – | – | – | –
Clc1ccccc1SC1=NCCCS1 [CAS No. 55545-14-7, 2-[(2-chlorophenyl)sulfanyl]-5,6-dihydro-4H-1,3-thiazine] | – | – | < 200 µg/mL | < 200 µg/mL | < 200 µg/mL | –
Cc1cccc(C)c1SC1=NCCCS1 [Example 37] | 400 ppm | <200 ppm | – | – | – | –
Fc1cccc(SC2=NCCCS2)c1 [Example 39] | <100 ppm | <100 ppm | – | – | – | Minimum inhibitory concentration, Aspergillus niger (Aspergillus niger): 100 ppm
c1cc(C2CC2)ccc1SC1=NCCCS1 [Example 49] | <100 ppm | <100 ppm | – | – | – | Minimum inhibitory concentration, Aspergillus niger (Aspergillus niger): 100 ppm
Clc1ccc(SC2=NCCCS2)cc1 [CAS No. 10554-28-6, 2-[(4-chlorophenyl)sulfanyl]-5,6-dihydro-4H-1,3-thiazine] | – | – | < 200 µg/mL | < 200 µg/mL | < 400 µg/mL | –
c1ccc(-c2cccc(SC3=NCCCS3)c2)cc1 [Example 48] | 200 ppm | <100 ppm | – | – | – | –
Clc1ccc(SC2=NCCS2)cc1 [CAS No. 103482-92-4, 2-[4-chlorophenylsulfanyl]-4,5-dihydro-1,3-thiazole] | – | – | 200 µg/mL (≈ 870 µM) | < 200 µg/mL | – | –
c1ccc(Oc2ccc(SC3=NCCCS3)cc2)cc1 [Example 45] | 100 ppm | <100 ppm | – | – | – | –
Clc1cccc(SC2=NCCS2)c1 [CAS No. 103482-93-5, 2-[3-chlorophenylsulfanyl]-4,5-dihydro-1,3-thiazole] | – | – | 200 µg/mL (≈ 870 µM) | < 200 µg/mL | – | –
Fc1ccc(SC2=NCCCS2)cc1 [CAS No. 73122-42-6, 2-[(4-fluorophenyl)sulfanyl]-5,6-dihydro-4H-1,3-thiazine] | – | – | < 50 µg/mL | < 100 µg/mL | 100 µg/mL (≈ 440 µM) | –
C=CCSC1=NCCS1 [CAS No. 3571-74-2, 2-[allylsulfanyl]-4,5-dihydro-1,3-thiazole] | – | – | – | – | – | MIC (Bacillus subtilis): 200 µg/mL (≈ 1260 µM)
Cc1ccc(SC2=NCCCS2)cc1 [CAS No. 73122-44-8, 2-[(4-methylphenyl)sulfanyl]-5,6-dihydro4H-1,3-thiazine] | – | – | < 100 µg/mL | < 200 µg/mL | < 250 µg/mL | –
CC(C)(C)c1ccc(SC2=NCCCS2)cc1 [CAS No. 73122-48-2, 2-[(4-tert-butylphenyl)sulfanyl]-5,6-dihydro-4H-1,3-thiazine] | – | – | < 100 µg/mL | < 100 µg/mL | 100 µg/mL (≈ 377 µM) | –
O=[N+]([O-])c1ccc(SC2=NCCCS2)cc1 [CAS No. 73122-52-8, 2-[(4-nitrophenyl)sulfanyl]-5,6-dihydro-4H-1,3-thiazine] | – | – | < 200 µg/mL | < 100 µg/mL | < 150 µg/mL | –
COc1ccc(SC2=NCCCS2)cc1 [CAS No. 73122-49-3, 2-[(4-methoxyphenyl)sulfanyl]-5,6-dihydro-4H-1,3-thiazine] | – | – | < 300 µg/mL | < 400 µg/mL | < 400 µg/mL | –
COc1ccc(SC2=NCCCS2)cc1OC [Example 42] | <200 ppm | 100 ppm | – | – | – | Minimum inhibitory concentration, Aspergillus niger (Aspergillus niger): 500 ppm

SMILES | Minimum inhibitory concentration, Penicillium brevicaule (Penicillium brevicaule) | Minimum inhibitory concentration, Chaetomium globosum (Chaetomium globosum) | MIC (Penicillium brevicaule) | MIC (Chaetomium globosum) | MIC (Aspergillus niger) | other results
Clc1cccc(SC2=NCCCS2)c1 [CAS No. 73122-33-5, 2-[(3-chlorophenyl)sulfanyl]-5,6-dihydro4H-1,3-thiazine] | – | – | < 200 µg/mL | < 200 µg/mL | 200 µg/mL (≈ 820 µM) | –
COC(=O)C1CSC(SC(C)C)=N1 (stereo not drawn) [Example 8] | – | – | – | – | – | Minimum inhibitory concentration, Bacillus subtilis (Bacillus subtilis): <200 ppm
Clc1ccc(SC2=NCCCS2)cc1Cl [CAS No. 73122-34-6, 2-[(3,4-dichlorophenyl)sulfanyl]-5,6-dihydro-4H-1,3-thiazine] | – | – | < 100 µg/mL | < 100 µg/mL | 400 µg/mL (≈ 1440 µM) | –
COc1ccccc1SC1=NCCCS1 [Example 26] | 100 ppm | 200 ppm | – | – | – | –
Cc1cccc(SC2=NCCCS2)c1 [CAS No. 73122-45-9, 2-[(3-methylphenyl)sulfanyl]-5,6-dihydro4H-1,3-thiazine] | – | – | < 100 µg/mL | < 100 µg/mL | < 200 µg/mL | –
COc1cccc(SC2=NCCCS2)c1 [Example 25] | – | – | – | – | – | Mould resistance of coating [1]: mould-resistant
c1ccc(CSC2=NCCCS2)cc1 [Example 22] | – | – | – | – | – | Minimum inhibitory concentration, Bacillus subtilis (Bacillus subtilis): 100 ppm
FC(F)(F)c1ccc(SC2=NCCCS2)cc1 [Example 40] | <100 ppm | <100 ppm | – | – | – | Minimum inhibitory concentration, Aspergillus niger (Aspergillus niger): <250 ppm
Clc1cc(Cl)cc(SC2=NCCCS2)c1 [CAS No. 73122-37-9, 2-[(3,5-dichlorophenyl)sulfanyl]-5,6-dihydro-4H-1,3-thiazine] | – | – | – | – | – | MIC (Bacillus subtilis): 100 µg/mL (≈ 359 µM)
Brc1ccc(SC2=NCCCS2)cc1 [CAS No. 73122-41-5, 2-[(4-bromophenyl)sulfanyl]-5,6-dihydro-4H-1,3-thiazine] | – | – | < 200 µg/mL | < 200 µg/mL | < 300 µg/mL | –
CN(C)c1ccc(SC2=NCCCS2)cc1 [CAS No. 73122-51-7, 4-(5,6-dihydro-4H-1,3-thiazin-2-ylsulfanyl)-N,N-dimethylaniline] | – | – | 100 µg/mL (≈ 396 µM) | < 100 µg/mL | 200 µg/mL (≈ 792 µM) | –
O=[N+]([O-])c1ccc(SC2=NCCS2)cc1 [CAS No. 103482-99-1, 2-[4-nitrophenylsulfanyl]-4,5-dihydro-1,3-thiazole] | – | – | < 200 µg/mL | < 200 µg/mL | – | –
c1ccc(SC2=NCCCS2)cc1 [CAS No. 73122-32-4, 2-(phenylsulfanyl)-5,6-dihydro-4H-1,3-thiazine] | – | – | < 200 µg/mL | < 200 µg/mL | < 300 µg/mL | MIC (Bacillus subtilis): < 100 µg/mL
Cc1ccccc1SC1=NCCCS1 [CAS No. 73122-46-0, 2-[(2-methylphenyl)sulfanyl]-5,6-dihydro-4H-1,3-thiazine] | – | – | 100 µg/mL (≈ 448 µM) | < 200 µg/mL | 200 µg/mL (≈ 895 µM) | –
CCc1ccc(SC2=NCCCS2)cc1 [Example 44] | <100 ppm | <100 ppm | – | – | – | Minimum inhibitory concentration, Aspergillus niger (Aspergillus niger): 100 ppm
COc1ccccc1SC1=NCCCS1 [Example 36] | 100 ppm | 100 ppm | – | – | – | Minimum inhibitory concentration, Aspergillus niger (Aspergillus niger): 100 ppm
Clc1ccc(SC2=NCCCS2)c(Cl)c1 [CAS No. 73122-35-7, 2-[(2,4-dichlorophenyl)sulfanyl]-5,6-dihydro-4H-1,3-thiazine] | – | – | – | – | – | MIC (Bacillus subtilis): < 40 µg/mL
